# According to publication PMC6820371, “Terbium-161 for PSMA-targeted radionuclide therapy of prostate cancer” (European Journal of Nuclear Medicine and Molecular Imaging, 2019):
# Read-outs that look alike come from different tables or passages of the source.
# What was measured:
# [1] = Stability of radioligand incubated in saline (radiolytic degradation); format: physicochemical
# Description: The radiolabeling of PSMA-617 (Advanced Biochemical Compounds, ABX GmbH, Radeberg, Germany) with ^161Tb was performed under standard labeling conditions (Supplementary material). […] The n-octanol/PBS distribution coefficient (logD) was determined for ^161Tb-PSMA-617 (Supplementary material). All of these experiments were performed as previously reported for ^177Lu-PSMA-617 [27].
# PC-3 PIP tumor cells = test: Cell survival assay (clonogenic assay); format: cell-based, human; settings: 0.05–5.0 MBq/mL, p < 0.05
# [2] = tested on: PSMA-negative PC-3 flu tumor cells; test: Cell survival assay (clonogenic assay); format: cell-based; settings: 1 MBq/mL and higher, p > 0.05
# [3] = tested on: PC-3 PIP/flu tumor-bearing mice; settings: for Biodistribution: Blood / Biodistribution: Bone / Biodistribution: Heart / Biodistribution: Intestines / Biodistribution: Kidneys / Biodistribution: Liver / Biodistribution: Lung / Biodistribution: Muscle / Biodistribution: PC-3 PIP tumor / Biodistribution: PC-3 flu tumor / Biodistribution: Salivary glands / Biodistribution: Spleen / Biodistribution: Stomach: 5.0 MBq, 1 nmol i.v.; for Tumor-to-blood / Tumor-to-kidney / Tumor-to-liver: PC-3 PIP tumor
# Description: Biodistribution studies were performed 12–14 days after tumor cell inoculation when the tumor xenografts reached an average tumor volume of about ~50–200 mm^3 (Supplementary material). PSMA-617 was labeled with ^161Tb at a specific activity of 5.0 MBq/nmol and diluted in saline. […] The mice were sacrificed at 1 h, 4 h, 24 h, 48 h, or 96 h post injection (p.i.) and selected tissues and organs were collected, weighed, and measured using a γ-counter (Perkin Elmer, Wallac Wizard 1480). Groups of 3–5 mice were sacrificed at each time point. The results were decay-corrected and listed as percentage of the injected activity per gram of tissue mass (% IA/g). Data are presented as the average ± standard deviation (SD).
# A p-value of < 0.05 was considered statistically significant.
# Biodistribution studies were performed 12–14 days after tumor cell inoculation. The experimental procedure of the biodistribution studies is described in the main manuscript.
smiles,measurement,setting,value
O=C([O-])CN1CCN(CC(=O)[O-])CCN(CC(=O)NCC2CCC(C(=O)NC(Cc3ccc4ccccc4c3)C(=O)NCCCCC(NC(=O)NC(CCC(=O)O)C(=O)O)C(=O)O)CC2)CCN(CC(=O)[O-])CC1.[161Tb+3] (centres unmarked) [^161Tb-PSMA-617],Stability (intact radioligand),"[1]; 50 MBq/nmol, 250 MBq/500 μL, at least 1 h, without L-ascorbic acid",> 98%
same,Stability when incubated for longer time periods,"[1]; 250 MBq/500 μL, longer than 1 h, without L-ascorbic acid",radiolytic degradation
same,Stability (intact radioligand),"[1]; in the presence of L-ascorbic acid, up to 24 h",≥ 98%
same,Reduction of tumor-cell survival compared to ^177Lu-PSMA-617,PC-3 PIP tumor cells,significantly more effective
same,Effect on survival of PC-3 flu cells compared to ^177Lu-PSMA-617,[2],tendency of a more pronounced effect
same,Biodistribution: Blood,[3]; 1 h p.i.,0.49 ± 0.16 %IA/g
same,Biodistribution: Bone,[3]; 1 h p.i.,0.21 ± 0.07 %IA/g
same,Biodistribution: Heart,[3]; 1 h p.i.,0.21 ± 0.05 %IA/g
same,Biodistribution: Intestines,[3]; 1 h p.i.,0.26 ± 0.05 %IA/g
same,Biodistribution: Kidneys,[3]; 1 h p.i.,9.6 ± 1.3 %IA/g
same,Biodistribution: Liver,[3]; 1 h p.i.,0.28 ± 0.05 %IA/g
same,Biodistribution: Lung,[3]; 1 h p.i.,0.66 ± 0.28 %IA/g
same,Biodistribution: Muscle,[3]; 1 h p.i.,0.13 ± 0.06 %IA/g
same,Biodistribution: PC-3 PIP tumor,[3]; 1 h p.i.,44 ± 5.3 %IA/g
same,Biodistribution: PC-3 flu tumor,[3]; 1 h p.i.,0.39 ± 0.18 %IA/g
same,Biodistribution: Salivary glands,[3]; 1 h p.i.,0.28 ± 0.13 %IA/g
same,Biodistribution: Spleen,[3]; 1 h p.i.,0.54 ± 0.08 %IA/g
same,Biodistribution: Stomach,[3]; 1 h p.i.,0.22 ± 0.05 %IA/g
same,Tumor-to-blood,[3]; 1 h p.i.,99 ± 27
same,Tumor-to-kidney,[3]; 1 h p.i.,4.7 ± 0.5
same,Tumor-to-liver,[3]; 1 h p.i.,163 ± 23
same,Biodistribution: Blood,[3]; 4 h p.i.,0.08 ± 0.01 %IA/g
same,Biodistribution: Bone,[3]; 4 h p.i.,0.09 ± 0.02 %IA/g
same,Biodistribution: Heart,[3]; 4 h p.i.,0.05 ± 0.01 %IA/g
same,Biodistribution: Intestines,[3]; 4 h p.i.,0.06 ± 0.01 %IA/g
same,Biodistribution: Kidneys,[3]; 4 h p.i.,2.9 ± 0.14 %IA/g
same,Biodistribution: Liver,[3]; 4 h p.i.,0.17 ± 0.02 %IA/g
same,Biodistribution: Lung,[3]; 4 h p.i.,0.11 ± 0.01 %IA/g
same,Biodistribution: Muscle,[3]; 4 h p.i.,0.03 ± 0.00 %IA/g
same,Biodistribution: PC-3 PIP tumor,[3]; 4 h p.i.,49 ± 5.5 %IA/g
same,Biodistribution: PC-3 flu tumor,[3]; 4 h p.i.,0.13 ± 0.02 %IA/g
same,Biodistribution: Salivary glands,[3]; 4 h p.i.,0.07 ± 0.01 %IA/g
same,Biodistribution: Spleen,[3]; 4 h p.i.,0.13 ± 0.01 %IA/g
same,Biodistribution: Stomach,[3]; 4 h p.i.,0.08 ± 0.01 %IA/g
same,Tumor-to-blood,[3]; 4 h p.i.,640 ± 132
same,Tumor-to-kidney,[3]; 4 h p.i.,17 ± 1.6
same,Tumor-to-liver,[3]; 4 h p.i.,302 ± 64
same,Biodistribution: Blood,[3]; 24 h p.i.,0.03 ± 0.00 %IA/g
same,Biodistribution: Bone,[3]; 24 h p.i.,0.09 ± 0.01 %IA/g
same,Biodistribution: Heart,[3]; 24 h p.i.,0.03 ± 0.00 %IA/g
same,Biodistribution: Intestines,[3]; 24 h p.i.,0.03 ± 0.00 %IA/g
same,Biodistribution: Kidneys,[3]; 24 h p.i.,1.1 ± 0.09 %IA/g
same,Biodistribution: Liver,[3]; 24 h p.i.,0.11 ± 0.02 %IA/g
same,Biodistribution: Lung,[3]; 24 h p.i.,0.11 ± 0.09 %IA/g
same,Biodistribution: Muscle,[3]; 24 h p.i.,0.02 ± 0.00 %IA/g
same,Biodistribution: PC-3 PIP tumor,[3]; 24 h p.i.,43 ± 5.5 %IA/g
same,Biodistribution: PC-3 flu tumor,[3]; 24 h p.i.,0.08 ± 0.01 %IA/g
same,Biodistribution: Salivary glands,[3]; 24 h p.i.,0.05 ± 0.01 %IA/g
same,Biodistribution: Spleen,[3]; 24 h p.i.,0.08 ± 0.01 %IA/g
same,Biodistribution: Stomach,[3]; 24 h p.i.,0.04 ± 0.00 %IA/g
